Like-named read-outs stand apart in the source and are kept apart here.
Tests used:
Format in all cases: cell-based, Human
Kasumi-1 (KIT N822K) = assay: In vitro growth inhibition of Kasumi-1 tumor cells (MTT/CCK8); details: Homo sapiens, Kasumi 1; in vitro growth inhibition (or induction of apoptosis), cells cultured 3 to 5 days, MTT (CCK8); read-out: IC50 Kasumi-1 (KIT N822K)
Excerpt: (§1) Tumor cell lines are an effective model for studying in vitro tumor growth inhibition. In the present invention, a representative tumor cell line was selected to determine the cell growth inhibition activity of the present compound. All cell lines used were from ATCC, DSMZ, and cell banks of the Chinese Academy of Sciences. Cell culture conditions and methods were in accordance with the requirements of each cell line. Cells were subcultured in vitro for no more than 3 generations each time, and as required, single-clone purification and identification of cell lines could be carried out.
(§2) The cell culture media used were RPMI1640 (Gibco), DMEM (Gibco), MEM (Gibco), L15 (Gibco), IMDM (Gibco), McCOY'S5A, and William's (Gibco). 5-20% fetal bovine serum (Gibco), 1% double antibiotic, 2 mM glutamine, or 1 mM sodium pyruvate were added. The names, species, major gene characteristics, culture media and cell sources of the cell lines used are shown in table 1, wherein “amp” refers to gene amplification. “+++” refers to gene overexpression. The main genetic characteristics of cells were obtained from the COSMIC Cell Lines Project and related research papers, respectively.
(§3) Adherent cells were digested with 0.25% trypsin-EDTA (Gibco). Suspension culture cells were collected by centrifugation (1700 rpm, 3 minutes). The supernatant was discarded and the cells were counted. According to each cell growth cycle, different concentrations of cells were prepared (5˜10×10^4 cells per ml), and inoculated to 96-well plates (Corning), with 100 μl per well, and incubated overnight at 37° C., 5% CO2. The next day, the test compound was added to the cultured cells (2 wells in parallel). The final concentration of the solvent was less than 1/1,000. The cells were further cultured for 3 to 5 days and assayed by MTT.
(§4) The compound was stored at a concentration of 10 mM at −20° C. and diluted to 2- or 10-fold series prior to use. BGJ398 and AC220 were synthesized according to the methods of WO2006420A1 and US2007232604A1, respectively.
(§5) The adherent cells were taken out from the cell culture medium, and immediately added to a freshly prepared complete medium containing 10% CCK8 (5% FBS), 100 ul per hole. The suspended cells were directly added to a CCK8 reagent until reaching a final concentration of 10% and cultured for 1 to 4 hours.
(§6) T=optical density of drug-treated cell wells−optical density of blank control wells; T0=optical density of cell wells before drug treatment−optical density of blank control wells; C=optical density of solvent control wells−optical density of blank control wells. […] The experiments were repeated 1 to 3 times and a statistical analysis of data was conducted.

MOLM-13 (FLT3-ITD) = assay: In vitro growth inhibition of MOLM-13 tumor cells (MTT/CCK8); details: Homo sapiens
Excerpt: as §1, §2, §3, §4, §5, §6

H1581 (FGFR1 amp) = assay: In vitro growth inhibition of H1581 tumor cells (MTT/CCK8); details: Homo sapiens, NCI-H1581; in vitro growth inhibition (or induction of apoptosis), cells cultured 3 to 5 days, MTT (CCK8); read-out: IC50 H1581 (FGFR1 amp)
Excerpt: as §1, §2, §3, §4, §5, §6

KATO III (FGFR2 amp) = assay: In vitro growth inhibition of KATO III tumor cells (MTT/CCK8); details: Homo sapiens, KATO III; in vitro growth inhibition (or induction of apoptosis), cells cultured 3 to 5 days, MTT (CCK8); read-out: IC50 KATO III (FGFR2 amp)
Excerpt: as §1, §2, §3, §4, §5, §6

H1703 (PDGFRa amp) = assay: In vitro growth inhibition of H1703 tumor cells (MTT/CCK8); details: Homo sapiens, NCI-H1703; in vitro growth inhibition (or induction of apoptosis), cells cultured 3 to 5 days, MTT (CCK8); read-out: IC50 H1703 (PDGFRa amp)
Excerpt: as §1, §2, §3, §4, §5, §6

KCL-22 (BCR-ABL) = assay: In vitro growth inhibition of KCL-22 tumor cells (MTT/CCK8); details: Homo sapiens, KCL-22; in vitro growth inhibition (or induction of apoptosis), cells cultured 3 to 5 days, MTT (CCK8); read-out: IC50 KCL-22 (BCR-ABL)
Excerpt: as §1, §2, §3, §4, §5, §6

Karpas 299 (NPM-ALK) = assay: In vitro growth inhibition of Karpas 299 tumor cells (MTT/CCK8); details: Homo sapiens
Excerpt: as §1, §2, §3, §4, §5, §6

Hep3B2 (FGFR3/4+++) = assay: In vitro growth inhibition of Hep3B2 tumor cells (MTT/CCK8); details: Homo sapiens, Hep3B; in vitro growth inhibition (or induction of apoptosis), cells cultured 3 to 5 days, MTT (CCK8); read-out: IC50 Hep3B2 (FGFR3/4+++)
Excerpt: as §1, §2, §3, §4, §5, §6

[1] = MOLM-13, in vitro growth inhibition (or induction of apoptosis), cells cultured 3 to 5 days, MTT (CCK8), read-out: IC50 MOLM-13 (FLT3-ITD)
[2] = KARPAS-299, in vitro growth inhibition (or induction of apoptosis), cells cultured 3 to 5 days, MTT (CCK8), read-out: IC50 Karpas 299 (NPM-ALK)

SMILES | IC50 (Kasumi-1 (KIT N822K)) [nM] | IC50 (MOLM-13 (FLT3-ITD); [1]) [nM] | IC50 (H1581 (FGFR1 amp)) [nM] | IC50 (KATO III (FGFR2 amp)) [nM] | IC50 (H1703 (PDGFRa amp)) [nM] | IC50 (KCL-22 (BCR-ABL)) [nM] | IC50 (Karpas 299 (NPM-ALK); [2]) [nM] | IC50 (Hep3B2 (FGFR3/4+++)) [nM] | IC50 (MOLM-13 (FLT3-ITD); MOLM-13, read-out: IC50 MOLM-13 (FLT3-ITD)) [nM] | IC50 (Karpas 299 (NPM-ALK); KARPAS-299, read-out: IC50 Karpas 299 (NPM-ALK)) [nM]
CC(C)(C)c1cc(NC(=O)Nc2ccc(-c3cn4c(n3)sc3cc(OCCC5CCOCC5)ccc34)cc2)no1 [AC220, reference compound] | > 1000 | 0.69 | > 1000 | > 1000 | > 1000 | > 1000 | > 1000 |  |  | 
COc1cc2nccc(Oc3ccc(NC(=O)Nc4cc(C(C)(C)C)on4)c(Br)c3)c2cc1C(N)=O [Compound 3, 4-{3-bromo-4-[3-(5-tert-butyl-isoxazol-3-yl)-ureido]-phenoxy}-7-methoxyquinolin-6-carboxamide] | 27.8 | 35.4 | 6.87 | 1.46 | 16.6 | 14 | 725 | 27.4 |  | 
COc1cc2nccc(Oc3ccc(NC(=O)Nc4cc(C(C)(C)C)on4)c(C(F)(F)F)c3)c2cc1C(N)=O [Compound 4] | 14.5 | 122 | 13.2 | 2.93 | 21.8 | 10.4 | 756 | 27.8 |  | 
CC(C)(C)c1cc(NC(=O)Nc2ccc(Oc3ccnc4cc(OCCCN5CCN(c6ccccc6)CC5)c(C(N)=O)cc34)cc2Cl)[nH]n1 [Compound 86, 4-{4-[3-(5-tert-butyl-2H-pyrazol-3-yl)-ureido]-3-chloro-phenoxy}-7-[3-(4-phenyl-piperazin-1-yl)-propoxy]-quinolin-6-carboxamide] | 76.3 |  | 326 | 68.3 | 370 |  | 600 | 85.1 |  | 
CN1CCCN(CCCOc2cc3nccc(Oc4ccc(NC(=O)Nc5cc(C(C)(C)C)n[nH]5)c(Cl)c4)c3cc2C(N)=O)CC1 [Compound 88, 4-{4-[3-(5-tert-butyl-2H-pyrazol-3-yl)-ureido]-3-chloro-phenoxy}-7-[3-(4-methyl-[1,4]-1-yl)-propoxy]-quinolin-6-carboxamide] | 15.6 | 5.49 |  | 5.67 | 55.6 | 282 | 153 | 175 |  | 
CC(C)(C)c1cc(NC(=O)Nc2ccc(Oc3ccnc4cc(OCCCN5CCN(CC6CCCCC6)CC5)c(C(N)=O)cc34)cc2Cl)[nH]n1 [Compound 90] | 9.47 | 7.54 |  | 2.78 |  | 175 | 256 | 101 |  | 
COc1cc2nccc(Oc3ccc(NC(=O)Nc4cc(C(C)(C)C)n[nH]4)cn3)c2cc1C(N)=O [Compound 108, 4-{5-[3-(5-tert-butyl-2H-pyrazol-3-yl)-ureido]-pyridin-2-yloxy}-7-methoxy-quinolin-6-carboxamide] | > 1000 | 3.81 | 146 | 31.3 | 666 | > 1000 | > 1000 |  |  | 
CC(C)(C)c1cc(NC(=O)Nc2ccc(Oc3ccnc4cc(OCCCN5CCOCC5)c(C(N)=O)cc34)cc2Cl)n(C2CCCC2)n1 [Compound 140, 4-{4-[3-(5-tert-butyl-2-cyclopentyl-2H-pyrazol-3-yl)-ureido]-3-chloro-phenoxy}-7-(3-morpholin-4-yl-propoxy)-quinolin-6-carboxamide] |  | 17.9 | 115 | 23.7 |  |  |  |  |  | 
Cc1ccc(C(=O)Nc2ccc(CN3CCN(C)CC3)c(C(F)(F)F)c2)cc1C#Cc1cnc2cccnn12 [Ponatinib, reference compound] |  |  |  |  |  |  |  |  | < 1 | 798

More lines, in order of falling IC50 (KATO III (FGFR2 amp)), values ahead:

IC50 (Kasumi-1 (KIT N822K)) [nM] | IC50 (MOLM-13 (FLT3-ITD); [1]) [nM] | IC50 (H1581 (FGFR1 amp)) [nM] | IC50 (KATO III (FGFR2 amp)) [nM] | IC50 (H1703 (PDGFRa amp)) [nM] | IC50 (KCL-22 (BCR-ABL)) [nM] | IC50 (Karpas 299 (NPM-ALK); [2]) [nM] | IC50 (Hep3B2 (FGFR3/4+++)) [nM] | IC50 (MOLM-13 (FLT3-ITD); MOLM-13, read-out: IC50 MOLM-13 (FLT3-ITD)) [nM] | IC50 (Karpas 299 (NPM-ALK); KARPAS-299, read-out: IC50 Karpas 299 (NPM-ALK)) [nM] | SMILES
16.4 | 6.41 |  | 1.26 |  | 184 | 216 | 43.1 |  |  | CC(=O)N1CCN(CCCOc2cc3nccc(Oc4ccc(NC(=O)Nc5cc(C(C)(C)C)n[nH]5)c(Cl)c4)c3cc2C(N)=O)CC1 [Compound 91, 7-[3-(4-acetyl-piperazin-1-yl)-propoxy]-4-{4-[3-(5-tert-butyl-2H-pyrazol-3-yl)-ureido]-3-chloro-phenoxy}-quinolin-6-carboxamide]
4.48 | 6.43 |  | 1.12 | 13.1 | 45 | 146 | 19.4 |  |  | CC(C)CN1CCN(CCCOc2cc3nccc(Oc4ccc(NC(=O)Nc5cc(C(C)(C)C)n[nH]5)c(Cl)c4)c3cc2C(N)=O)CC1 [Compound 89, 4-{4-[3-(5-tert-butyl-2H-pyrazol-3-yl)-ureido]-3-chloro-phenoxy}-7-[3-(4-isobutyl-piperazin-1-yl)-propoxy]-quinolin-6-carboxamide]
4.19 | 3.65 |  | 1.02 | 12.5 | 55.1 | 144 | 57.2 |  |  | CC(C)(C)c1cc(NC(=O)Nc2ccc(Oc3ccnc4cc(OCCCN5CCN(C(C)(C)C)CC5)c(C(N)=O)cc34)cc2Cl)[nH]n1 [Compound 87, 7-[3-(4-tert-butyl-piperazin-1-yl)-propoxy]-4-{4-[3-(5-tert-butyl-2H-pyrazol-3-yl)-ureido]-3-chlorophenoxy}-quinolin-6-carboxamide]
191 |  | 9.19 | 0.98 | 11.9 | 46.5 | 93 |  |  |  | COCCOc1cc2nccc(Oc3ccc(NC(=O)Nc4cc(C(C)(C)C)n[nH]4)c(Cl)c3)c2cc1C(N)=O [Compound 42, 4-{4-[3-(5-tert-butyl-2H-pyrazol-3-yl)-ureido]-3-chloro-phenoxy}-7-(2-methoxy-ethoxy)-quinolin-6-carboxamide]
26.1 | 6.49 | 3.35 | 0.51 | 7.9 | 7.58 | 587 | 25.6 |  |  | COc1cc2nccc(Oc3ccc(NC(=O)Nc4cc(C(C)(C)C)on4)c(Cl)c3)c2cc1C(N)=O [Compound 2, 4-{4-[3-(5-tert-butyl-isoxazol-3-yl)-ureido]-3-chloro-phenoxy}-7-methoxyquinolin-6-carboxamide]
0.406 |  | 3.02 | 0.23 | 17.3 | 2.69 | 100 | 15.8 |  |  | COc1cc2nccc(Oc3ccc(NC(=O)Nc4cc(C(C)(C)C)n[nH]4)c(Cl)c3C)c2cc1C(N)=O [Compound 112, 4-{4-[3-(5-tert-butyl-2H-pyrazol-3-yl)-ureido]-3-chloro-2-methyl-phenoxy}-7-methoxy-quinolin-6-carboxamide]
0.375 |  | 2.98 | 0.1 | 4.75 | 1.07 | 55.7 | 8.41 |  |  | COc1cc2nccc(Oc3ccc(NC(=O)Nc4cc(C(C)(C)C)nn4C)c(Cl)c3C)c2cc1C(N)=O [Compound 111, 4-{4-[3-(5-tert-butyl-2-methyl-2H-pyrazol-3-yl)-ureido]-3-chloro-2-methyl-phenoxy}-7-methoxy-carboxamide]

From US10800741B2 (ANCUREALL PHARMACEUTICAL (SHANGHAI) CO., LTD., priority 2017, dated 2020)
